Values of other authors as cited in article PMC12030253, “New Temporin A Analogues Modified in Positions 1 and 10—Synthesis and Biological Studies” (Pharmaceutics, 2025).
Read-outs that look alike come from different tables or passages of the source. Ends that are not written are not given here.

What was measured:
Parameters in all cases: method as in PMID 38931840
[1] = test system: Bacillus subtilis NBIMCC 3562; settings: broth dilution, 0-320 µg/mL, 24 h; cited from earlier work
[2] = test system: Escherichia coli NBIMCC 8785; settings: 20 µL per disk, cited from earlier work
[3] = test system: Escherichia coli NBIMCC 8785; settings: broth dilution, 0-320 µg/mL, 24 h; cited from earlier work
BALB 3T3 cells = settings: cited from earlier work; for CC50: BALB 3T3 cells, NRU
[4] = test system: Arthrobacter oxydans NBIMCC 9333; settings: broth dilution, 0-320 µg/mL, 24 h; cited from earlier work
[5] = test system: Bacillus subtilis NBIMCC 3562; settings: cited from earlier work; for Percentage-based inhibition compared to antibiotic, B. subtilis 3562: chloramphenicol taken as 100%; for Inhibition zone B. subtilis 3562: 20 µL per disk
[6] = test system: Arthrobacter oxydans NBIMCC 9333; settings: cited from earlier work; for Percentage-based inhibition compared to antibiotic, A. oxydans 9333: gentamicin taken as 100%; for Inhibition zone A. oxydans 9333: 20 µL per disk
[7] = test system: Pseudomonas aeruginosa NBIMCC 3700; settings: cited from earlier work; for Percentage-based inhibition compared to antibiotic, P. aeruginosa 3700: gentamicin taken as 100%; for Inhibition zone P. aeruginosa 3700: 20 µL per disk
[8] = test system: Candida albicans NBIMCC 74; settings: broth dilution, 0-320 µg/mL, 24 h; cited from earlier work
MCF-12F cells = settings: MTT, 72 h, non-tumorigenic cells; read-out: Mean IC50 ± SD MCF-12F; cited from earlier work
MCF-7 cells = settings: cited from earlier work
MDA-MB-231 cells = settings: cited from earlier work
[9] = test system: Pseudomonas aeruginosa NBIMCC 3700; settings: broth dilution, 0-320 µg/mL, 24 h; cited from earlier work

FLPLIGRVL-S-GILNH2 (FLPLIGRVLSGIL-NH2) [DTA, parent peptide Temporin A, C-terminal amide]
MIC B. subtilis 3562 [1]: 80 µg/mL
Inhibition zone E. coli 8785 ([2]; peptide 1.4 mg/mL): 0 mm
Inhibition zone E. coli 8785 ([2]; peptide 10 mg/mL): 0 mm
MIC E. coli 8785 [3]: 320 µg/mL
CC50 (BALB 3T3 cells; irradiated 2.4 J/cm^2, read-out: Mean CC50 ± SD +Irr): 105 ± 4.88 µM
CC50 (BALB 3T3 cells; without irradiation, read-out: Mean CC50 ± SD −Irr): 106 ± 4.18 µM
PIF (Photo-Irritation Factor) (BALB 3T3 cells; PIF < 2 not phototoxic): 1.01
MIC A. oxydans 9333 [4]: 80 µg/mL
Percentage-based inhibition compared to antibiotic, B. subtilis 3562 ([5]; 1.4 mg/mL): 33.8%
Percentage-based inhibition compared to antibiotic, B. subtilis 3562 ([5]; 10 mg/mL): 33.8%
Inhibition zone B. subtilis 3562 ([5]; peptide 1.4 mg/mL): 8.8 ± 0.3 mm
Inhibition zone B. subtilis 3562 ([5]; peptide 10 mg/mL): 8.8 ± 0.8 mm
Percentage-based inhibition compared to antibiotic, A. oxydans 9333 ([6]; 1.4 mg/mL): 37.8%
Percentage-based inhibition compared to antibiotic, A. oxydans 9333 ([6]; 10 mg/mL): 53.9%
Inhibition zone A. oxydans 9333 ([6]; peptide 1.4 mg/mL): 6.8 ± 0.3 mm
Inhibition zone A. oxydans 9333 ([6]; peptide 10 mg/mL): 9.7 ± 0.6 mm
Percentage-based inhibition compared to antibiotic, P. aeruginosa 3700 ([7]; 1.4 mg/mL): 45.9%
Percentage-based inhibition compared to antibiotic, P. aeruginosa 3700 ([7]; 10 mg/mL): 54.7%
Inhibition zone P. aeruginosa 3700 ([7]; peptide 1.4 mg/mL): 7.8 ± 0.3 mm
Inhibition zone P. aeruginosa 3700 ([7]; peptide 10 mg/mL): 9.3 ± 0.6 mm
MIC C. albicans 74 [8]: 320 µg/mL
IC50 (MCF-12F cells): 139 ± 8.36 µM
IC50 (MCF-7 cells; MTT, 72 h, read-out: Mean IC50 ± SD MCF-7): 73.2 ± 3.36 µM
Selectivity Index (SI) MCF-7 (MCF-7 cells; SI = IC50 (MCF-12F)/IC50 (MCF-7)): 1.90
IC50 (MDA-MB-231 cells; MTT, 72 h, read-out: Mean IC50 ± SD MDA-MB-231): 115 ± 4.04 µM
Selectivity Index (SI) MDA-MB-231 (MDA-MB-231 cells; SI = IC50 (MCF-12F)/IC50 (MDA-MB-231)): 1.20
MIC P. aeruginosa 3700 [9]: 320 µg/mL
